# Test results from ChEMBL document CHEMBL2046424, “Synthesis and anti Methicillin resistant Staphylococcus aureus activity of substituted chalcones alone and in combination with non-beta-lactam antibiotics” (2012).
# Calls of active or inactive are those of the source. The calls are words filed in the database; no cut-off is given here.
# How the values were obtained:
# Staphylococcus aureus [1] = experiment: Antibacterial activity against methicillin-sensitive Staphylococcus aureus ATCC 25923 at 256 ug/ml after 24 hrs by disc diffusion method; assay type: functional, organism-based
# Staphylococcus aureus [2] = experiment: Antibacterial activity against methicillin-resistant Staphylococcus aureus ATCC 43300 at 256 ug/ml after 24 hrs by disc diffusion method; assay type: functional, organism-based
# Staphylococcus aureus [3] = experiment: Antibacterial activity against methicillin-sensitive Staphylococcus aureus ATCC 25923 at 102.4 mg/ml after 24 hrs by disc diffusion method; assay type: functional; conditions: ATCC 25923, 24 h, read-out: DIZ
# Staphylococcus aureus [4] = experiment: Antibacterial activity against methicillin-resistant Staphylococcus aureus ATCC 43300 at 102.4 mg/ml after 24 hrs by disc diffusion method; assay type: functional; conditions: ATCC 43300, 24 h, read-out: DIZ
# Staphylococcus aureus [5] = experiment: Antibacterial activity against methicillin-sensitive Staphylococcus aureus ATCC 25923 after 24 hrs by microdilution method; assay type: functional
# Staphylococcus aureus [6] = experiment: Antibacterial activity against methicillin-resistant Staphylococcus aureus ATCC 43300 after 24 hrs by microdilution method; assay type: functional
# Staphylococcus aureus [7] = experiment: Antibacterial activity against methicillin-sensitive Staphylococcus aureus ATCC 25923 after 24 hrs by microdilution method in presence of non-beta lactam antibiotic Doxycycline; assay type: functional
# Staphylococcus aureus [8] = experiment: Antibacterial activity against methicillin-sensitive Staphylococcus aureus ATCC 25923 after 24 hrs by microdilution method in presence of non-beta lactam antibiotic ciprofloxacin; assay type: functional
# Staphylococcus aureus [9] = experiment: Antibacterial activity against methicillin-sensitive Staphylococcus aureus ATCC 25923 after 24 hrs by microdilution method in presence of non-beta lactam antibiotic gentamycin; assay type: functional
# Staphylococcus aureus [10] = experiment: Antibacterial activity against methicillin-resistant Staphylococcus aureus ATCC 43300 after 24 hrs by microdilution method in presence of non-beta lactam antibiotic Doxycycline; assay type: functional
# Staphylococcus aureus [11] = experiment: Antibacterial activity against methicillin-resistant Staphylococcus aureus ATCC 43300 after 24 hrs by microdilution method in presence of non-beta lactam antibiotic ciprofloxacin; assay type: functional
# Staphylococcus aureus [12] = experiment: Antibacterial activity against methicillin-resistant Staphylococcus aureus ATCC 43300 after 24 hrs by microdilution method in presence of non-beta lactam antibiotic gentamycin; assay type: functional
# Staphylococcus aureus [13] = experiment: Antibacterial activity against methicillin-sensitive Staphylococcus aureus ATCC 25923 at 2 ug/ml after 24 hrs by disc diffusion method; assay type: functional; conditions: ATCC 25923, 24 h, read-out: DIZ
# Staphylococcus aureus [14] = experiment: Antibacterial activity against methicillin-resistant Staphylococcus aureus ATCC 43300 at 2 ug/disc after 24 hrs by disc diffusion method; assay type: functional, organism-based
# Staphylococcus aureus [15] = experiment: Antibacterial activity against methicillin-sensitive Staphylococcus aureus ATCC 25923 at 15 ug/ml after 24 hrs by disc diffusion method; assay type: functional; conditions: ATCC 25923, 24 h, read-out: DIZ
# Staphylococcus aureus [16] = experiment: Antibacterial activity against methicillin-resistant Staphylococcus aureus ATCC 43300 at 15 ug/disc after 24 hrs by disc diffusion method; assay type: functional, organism-based
# Staphylococcus aureus [17] = experiment: Antibacterial activity against methicillin-sensitive Staphylococcus aureus ATCC 25923 at 30 ug/ml after 24 hrs by disc diffusion method; assay type: functional; conditions: ATCC 25923, 24 h, read-out: DIZ
# Staphylococcus aureus [18] = experiment: Antibacterial activity against methicillin-resistant Staphylococcus aureus ATCC 43300 at 30 ug/ml after 24 hrs by disc diffusion method; assay type: functional; conditions: ATCC 43300, 24 h, read-out: DIZ
# Staphylococcus aureus [19] = experiment: microbe, parasite or virus in culture; conditions: ATCC 25923, 24 h, read-out: DIZ
# Description: Antibacterial activity against methicillin-sensitive Staphylococcus aureus ATCC 25923 at 5 ug/ml after 24 hrs by disc diffusion method
# Staphylococcus aureus [20] = experiment: microbe, parasite or virus in culture; conditions: ATCC 43300, 24 h, read-out: DIZ
# Description: Antibacterial activity against methicillin-resistant Staphylococcus aureus ATCC 43300 at 5 ug/ml after 24 hrs by disc diffusion method
Compound,diameter of the inhibition zone (DIZ) (Staphylococcus aureus [1]),diameter of the inhibition zone (DIZ) (Staphylococcus aureus [2]),also measured
COc1cccc(/C=C/C(=O)c2ccc(Br)cc2)c1,inactive,inactive,–
COc1ccc(/C=C/C(=O)c2ccccc2O)cc1OC,inactive,inactive,–
O=C(/C=C/c1ccccc1O)c1ccccc1O,–,–,"zone of inhibition at 102400 µg/mL (Staphylococcus aureus [3]): 14 mm; zone of inhibition at 102400 µg/mL (Staphylococcus aureus [4]): 14 mm; MIC (Staphylococcus aureus [5]; ATCC 25923, 24 h): 64 µg/mL; MIC (Staphylococcus aureus [6]; ATCC 43300, 24 h): 64 µg/mL; fractional inhibitory concentration index (FICI) (Staphylococcus aureus [7]): 0.25; fractional inhibitory concentration index (FICI) (Staphylococcus aureus [8]): 1.5; fractional inhibitory concentration index (FICI) (Staphylococcus aureus [9]): 0.36; fractional inhibitory concentration index (FICI) (Staphylococcus aureus [10]): 0.15; fractional inhibitory concentration index (FICI) (Staphylococcus aureus [11]): 0.62; fractional inhibitory concentration index (FICI) (Staphylococcus aureus [12]): 0.5"
COc1ccc(/C=C/C(=O)c2ccccc2)cc1,inactive,inactive,–
COc1ccccc1/C=C/C(=O)c1ccccc1,inactive,inactive,–
CCC[C@@H]1C[C@@H](C(=O)N[C@@H]([C@H]2O[C@H](SC)[C@H](O)[C@@H](O)[C@H]2O)[C@H](C)Cl)N(C)C1 [CLINDAMYCIN],–,–,zone of inhibition at 2 µg/mL (Staphylococcus aureus [13]): 24 mm; diameter of the inhibition zone (DIZ) (Staphylococcus aureus [14]): inactive
O=C(/C=C/c1ccc(Cl)c(Cl)c1)c1ccccc1O,inactive,inactive,–
COc1ccc(/C=C/C(=O)c2ccccc2O)cc1,inactive,inactive,–
COc1cccc(/C=C/C(=O)c2ccc(Br)cc2)c1OC,inactive,inactive,–
COc1ccc2cc3[n+](cc2c1OC)CCc1cc2c(cc1-3)OCO2 [BERBERINE],–,–,"MIC (Staphylococcus aureus [6]; ATCC 43300, 24 h): 128 µg/mL"
CC[C@H]1OC(=O)[C@H](C)[C@@H](O[C@H]2C[C@@](C)(OC)[C@@H](O)[C@H](C)O2)[C@H](C)[C@@H](O[C@@H]2O[C@H](C)C[C@H](N(C)C)[C@H]2O)[C@](C)(O)C[C@@H](C)C(=O)[C@H](C)[C@@H](O)[C@]1(C)O [ERYTHROMYCIN],–,–,zone of inhibition at 15 µg/mL (Staphylococcus aureus [15]): 25 mm; diameter of the inhibition zone (DIZ) (Staphylococcus aureus [16]): inactive
COc1ccc(C(=O)/C=C/c2ccc(OC)c(OC)c2)c(O)c1,inactive,inactive,–
COc1ccc(C(=O)/C=C/c2ccc(OC)cc2OC)c(O)c1,inactive,inactive,–
COc1cc(/C=C/C(=O)c2ccccc2O)cc(OC)c1OC,inactive,inactive,–
COc1ccccc1/C=C/C(=O)c1ccc(Br)cc1,inactive,inactive,–
C[C@H]1c2cccc(O)c2C(=O)C2=C(O)[C@]3(O)C(=O)C(C(N)=O)=C(O)[C@@H](N(C)C)[C@@H]3[C@@H](O)[C@@H]21.O [DOXYCYCLINE],–,–,"zone of inhibition at 30 µg/mL (Staphylococcus aureus [17]): 27 mm; zone of inhibition at 30 µg/mL (Staphylococcus aureus [18]): 27 mm; MIC (Staphylococcus aureus [5]; ATCC 25923, 24 h): 8 µg/mL; MIC (Staphylococcus aureus [6]; ATCC 43300, 24 h): 4 µg/mL"
COc1cccc(/C=C/C(=O)c2ccccc2)c1OC,inactive,inactive,–
COc1ccc(C(=O)/C=C/c2ccc(Cl)cc2)c(O)c1,inactive,inactive,–
CN[C@H](CC(C)C)C(=O)N[C@H]1C(=O)N[C@@H](CC(N)=O)C(=O)N[C@H]2C(=O)N[C@H]3C(=O)N[C@H](C(=O)N[C@H](C(=O)O)c4cc(O)cc(O)c4-c4cc3ccc4O)[C@H](O)c3ccc(c(Cl)c3)Oc3cc2cc(c3O[C@@H]2O[C@H](CO)[C@@H](O)[C@H](O)[C@H]2O[C@H]2C[C@](C)(N)[C@H](O)[C@H](C)O2)Oc2ccc(cc2Cl)[C@H]1O [VANCOMYCIN],–,–,"zone of inhibition at 30 µg/mL (Staphylococcus aureus [17]): 17 mm; zone of inhibition at 30 µg/mL (Staphylococcus aureus [18]): 16 mm; MIC (Staphylococcus aureus [6]; ATCC 43300, 24 h): 8 µg/mL"

Compound,diameter of the inhibition zone (DIZ) (Staphylococcus aureus [1]),diameter of the inhibition zone (DIZ) (Staphylococcus aureus [2]),also measured
O=C(/C=C/c1ccc(Cl)cc1)c1ccccc1O,inactive,inactive,–
O=C(/C=C/c1ccccc1O)c1ccc(Br)cc1,–,–,"zone of inhibition at 102400 µg/mL (Staphylococcus aureus [3]): 13 mm; zone of inhibition at 102400 µg/mL (Staphylococcus aureus [4]): 13 mm; MIC (Staphylococcus aureus [5]; ATCC 25923, 24 h): 32 µg/mL; MIC (Staphylococcus aureus [6]; ATCC 43300, 24 h): 64 µg/mL; fractional inhibitory concentration index (FICI) (Staphylococcus aureus [7]): 0.37; fractional inhibitory concentration index (FICI) (Staphylococcus aureus [10]): 0.62"
O=C(O)c1cn(C2CC2)c2cc(N3CCNCC3)c(F)cc2c1=O [CIPROFLOXACIN],–,–,"MIC (Staphylococcus aureus [5]; ATCC 25923, 24 h): 0.25 µg/mL; MIC (Staphylococcus aureus [6]; ATCC 43300, 24 h): 0.5 µg/mL; zone of inhibition at 5 µg/mL (Staphylococcus aureus [19]): 27 mm; zone of inhibition at 5 µg/mL (Staphylococcus aureus [20]): 21 mm"
O=C(N[C@H](CO)[C@H](O)c1ccc([N+](=O)[O-])cc1)C(Cl)Cl [CHLORAMPHENICOL],–,–,zone of inhibition at 30 µg/mL (Staphylococcus aureus [17]): 25 mm; zone of inhibition at 30 µg/mL (Staphylococcus aureus [18]): 26 mm
O=C(/C=C/c1ccc(O)cc1)c1ccccc1 [4-HYDROXYCHALCONE],–,–,"zone of inhibition at 102400 µg/mL (Staphylococcus aureus [3]): 10 mm; zone of inhibition at 102400 µg/mL (Staphylococcus aureus [4]): 9 mm; MIC (Staphylococcus aureus [5]; ATCC 25923, 24 h): 64 µg/mL; MIC (Staphylococcus aureus [6]; ATCC 43300, 24 h): 32 µg/mL; fractional inhibitory concentration index (FICI) (Staphylococcus aureus [8]): 0.31; fractional inhibitory concentration index (FICI) (Staphylococcus aureus [10]): 0.62; fractional inhibitory concentration index (FICI) (Staphylococcus aureus [11]): 0.25"
COc1ccc(/C=C/C(=O)c2ccc(Br)cc2)cc1OC,inactive,inactive,–
O=C(/C=C/c1ccccc1O)c1ccccc1,–,–,"zone of inhibition at 102400 µg/mL (Staphylococcus aureus [3]): 11 mm; zone of inhibition at 102400 µg/mL (Staphylococcus aureus [4]): 11 mm; MIC (Staphylococcus aureus [5]; ATCC 25923, 24 h): 32 µg/mL; MIC (Staphylococcus aureus [6]; ATCC 43300, 24 h): 64 µg/mL; fractional inhibitory concentration index (FICI) (Staphylococcus aureus [7]): 0.31; fractional inhibitory concentration index (FICI) (Staphylococcus aureus [10]): 0.15; fractional inhibitory concentration index (FICI) (Staphylococcus aureus [11]): 0.75"
COc1ccc(/C=C/C(=O)c2ccc(Br)cc2)cc1,inactive,inactive,–
COc1ccc(/C=C/C(=O)c2ccc(OC)cc2O)cc1,inactive,inactive,–
COc1ccc(C(=O)/C=C/c2cc(OC)c(OC)c(OC)c2)c(O)c1,inactive,inactive,–
O=C(/C=C/c1ccccc1)c1ccccc1O,inactive,inactive,–
COc1ccc(/C=C/C(=O)c2ccccc2)cc1OC,inactive,inactive,–
COc1ccccc1/C=C/C(=O)c1ccccc1O,inactive,inactive,–
COc1ccc(/C=C/C(=O)c2ccccc2O)c(OC)c1,inactive,inactive,–
COc1ccc(C(=O)/C=C/c2ccc(Cl)c(Cl)c2)c(O)c1,inactive,inactive,–
COc1ccc(C(=O)/C=C/c2ccccc2)c(O)c1,inactive,inactive,–
GENTAMICIN,–,–,MIC (Staphylococcus aureus [5]): 1 µg/mL; MIC (Staphylococcus aureus [6]): 4 µg/mL
O=C(/C=C/c1ccccc1)c1ccc(Br)cc1,inactive,inactive,–
O=C(/C=C/c1ccccc1)c1ccccc1,inactive,inactive,–
